Converted amounts (≈) assume the structure as drawn. The source made the active and inactive calls. The rule behind the calls is not given here.
Key:
HeLa [1] = test: Effect on cell cycle progression in human HeLa cells assessed as reduction in 2N cells at 40 nM; type: functional, cell-based
HeLa [2] = test: Effect on cell cycle progression in human HeLa cells assessed as increase in 4N cells at 40 nM; type: functional, cell-based
[3] = target: Tubulin (Candida albicans) (UniProt P87066+P10875+O93807); test: Inhibition of microtubule formation in Candida albicans; type: protein-complex assay
Nakaseomyces glabratus = test: Fungicidal activity against Candida glabrata measured after 48 hrs by broth dilution method; type: functional
[4] = Cytotoxicity against mouse P388 cells assessed as reduction in cell viability measured after 48 hrs by resazurin dye-based fluorometric analysis; type: functional; conditions: P388, 48 h
[5] = Cytotoxicity against human HT-29 cells assessed as reduction in cell viability measured after 48 hrs by resazurin dye-based fluorometric analysis; type: functional; conditions: Homo sapiens, HT-29, 48 h
[6] = Cytotoxicity against human PC3 cells assessed as reduction in cell viability measured after 48 hrs by resazurin dye-based fluorometric analysis relative to control; type: functional, PC-3; set-up: concentration or dose not given beside the values
[7] = Cytotoxicity against human HT-29 cells assessed as reduction in cell viability measured after 48 hrs by resazurin dye-based fluorometric analysis relative to control; type: functional
Aspergillus fumigatus [8] = test: Fungicidal activity against Aspergillus fumigatus isolate 2 measured after 48 hrs by broth dilution method; type: functional; conditions: isolate 2, 48 h
Candida albicans [9] = test: Antifungal activity against Candida albicans 90028 measured after 48 hrs by broth dilution method; type: functional; conditions: Candida albicans, 90028, 48 h
Candida albicans [10] = test: Antifungal activity against Candida albicans ATCC 10231 measured after 48 hrs by broth dilution method; type: functional; conditions: ATCC 10231, 48 h
[11] = Antifungal activity against Candida glabrata measured after 48 hrs by broth dilution method; type: functional; conditions: Nakaseomyces glabratus
Aspergillus fumigatus [12] = test: Antifungal activity against Aspergillus fumigatus isolate 1 measured after 48 hrs by broth dilution method; type: functional; conditions: isolate 1, 48 h
Aspergillus fumigatus [13] = test: Antifungal activity against Aspergillus fumigatus isolate 2 measured after 48 hrs by broth dilution method; type: functional; conditions: isolate 2, 48 h
[14] = Antifungal activity against Trichophyton rubrum isolate 1 measured after 48 hrs by broth dilution method; type: functional
Trichophyton rubrum [15] = test: Fungicidal activity against Trichophyton rubrum isolate 1 measured after 48 hrs by broth dilution method; type: functional; conditions: isolate 1, 48 h
[16] = Antifungal activity against Trichophyton rubrum isolate 2 measured after 48 hrs by broth dilution method; type: functional
Trichophyton rubrum [17] = test: Fungicidal activity against Trichophyton rubrum isolate 2 measured after 48 hrs by broth dilution method; type: functional; conditions: isolate 2, 48 h
[18] = Antifungal activity against Trichophyton mentagrophytes isolate 1 measured after 48 hrs by broth dilution method; type: functional
[19] = test system: Trichophyton mentagrophytes; test: Fungicidal activity against Trichophyton mentagrophytes isolate 1 measured after 48 hrs by broth dilution method; type: functional; conditions: isolate 1, 48 h
[20] = Antifungal activity against Trichophyton mentagrophytes isolate 2 measured after 48 hrs by broth dilution method; type: functional
[21] = Antifungal activity against Epidermophyton floccosum isolate 1 measured after 48 hrs by broth dilution method; type: functional
[22] = Antifungal activity against Epidermophyton floccosum isolate 2 measured after 48 hrs by broth dilution method; type: functional
[23] = Cytotoxicity against human PC3 cells assessed as reduction in cell viability measured after 48 hrs by resazurin dye-based fluorometric analysis; type: functional; conditions: PC-3, 48 h
[24] = Antiproliferative activity against taxol-sensitive human MES-SA cells […]; type: functional, cell-based
[25] = Antiproliferative activity against taxol-sensitive human MES-SA cells pretreated with p-gp inhibitor cyclosporinA followed by compound addition; type: functional, cell-based
[26] = Antiproliferative activity against taxol-resistant human MES-SA/Dx5 cells expressing MDR1 mRNA and P-gp; type: functional, cell-based
[27] = Antiproliferative activity against taxol-resistant human MES-SA/Dx5 cells expressing MDR1 mRNA and P-gp pretreated with p-gp inhibitor cyclosporinA followed by compound addition; type: functional, cell-based
Jurkat [28] = test: Induction of apoptosis in human Jurkat cells assessed as DNA laddering at 1 nM by gel electrophoresis; type: functional, cell-based
Jurkat [29] = test: Induction of apoptosis in human Jurkat cells assessed as PARP cleavage at 100 nM measured after 10 hrs by Western blotting; type: functional, cell-based
[30] = Antitumor activity against human HT-29 cells xenografted in nude mouse assessed as tumor growth inhibition at 100 mg/kg, ip administered thrice weekly relative to control; type: functional; conditions: HT-29, ip, read-out: TGI
MCF7 [31] = test: Antimitotic activity in human MCF7 cells assessed as mitotic index measured after 20 hrs by DAPI-staining based fluorescence microscopic analysis; type: functional, cell-based
MCF7 [32] = test: Antimitotic activity in human MCF7 cells assessed as bipolar cells with uncompressed chromosomes at mitotic block IC50 measured after 20 hrs by immunofluorescence analysis relative to control; type: functional
MCF7 [33] = test: Antimitotic activity in human MCF7 cells assessed as microtubule polymer at twice mitotic block IC50 measured after 20 hrs by immunofluorescence analysis relative to control; type: functional, cell-based
MCF7 [34] = test: Antimitotic activity in human MCF7 cells assessed as decrease in microtubule polymer formation measured after 20 hrs by immunofluorescence analysis relative to control; type: functional, cell-based
Tubulin (Homo sapiens) [35] = target: T1, Tubulin (Homo sapiens) (UniProt P68371+Q9H4B7+P0DPH7+P68366+Q13509+Q71U36+P04350+Q3ZCM7+P07437+P68363+Q9BQE3+Q6PEY2+Q13885+Q9BVA1+Q9BUF5); test: Induction of microtubule instability in human MCF7 cells assessed as time spent for growth at IC25 for mitotic block measured after 20 hrs by immunofluorescence analysis; type: cell-based
Tubulin (Homo sapiens) [36] = target: T1, Tubulin (Homo sapiens); test: Induction of microtubule instability in human MCF7 cells assessed as time spent for shortening at IC25 for mitotic block measured after 20 hrs by immunofluorescence analysis; type: cell-based
Tubulin (Homo sapiens) [37] = target: T1, Tubulin (Homo sapiens); test: Induction of microtubule instability in human MCF7 cells assessed as time spent for attenuation at IC25 for mitotic block measured after 20 hrs by immunofluorescence analysis; type: cell-based
Tubulin (Homo sapiens) [38] = target: T1, Tubulin (Homo sapiens); test: Induction of microtubule instability in human MCF7 cells assessed as catastrophy frequency at IC25 for mitotic block measured after 20 hrs by immunofluorescence analysis; type: cell-based
Tubulin (Homo sapiens) [39] = target: T1, Tubulin (Homo sapiens); test: Induction of microtubule instability in human MCF7 cells assessed as rescue frequency at IC25 for mitotic block measured after 20 hrs by immunofluorescence analysis; type: cell-based
Tubulin (Homo sapiens) [40] = target: T1, Tubulin (Homo sapiens); test: Induction of microtubule instability in human MCF7 cells assessed as time spent for growth at IC50 for mitotic block measured after 20 hrs by immunofluorescence analysis; type: cell-based
Tubulin (Homo sapiens) [41] = target: T1, Tubulin (Homo sapiens); test: Induction of microtubule instability in human MCF7 cells assessed as time spent for shortening at IC50 for mitotic block measured after 20 hrs by immunofluorescence analysis; type: cell-based
Tubulin (Homo sapiens) [42] = target: T1, Tubulin (Homo sapiens); test: Induction of microtubule instability in human MCF7 cells assessed as time spent for attenuation at IC50 for mitotic block measured after 20 hrs by immunofluorescence analysis; type: cell-based
Tubulin (Homo sapiens) [43] = target: T1, Tubulin (Homo sapiens); test: Induction of microtubule instability in human MCF7 cells assessed as catastrophy frequency at IC50 for mitotic block measured after 20 hrs by immunofluorescence analysis; type: cell-based
Tubulin (Homo sapiens) [44] = target: T1, Tubulin (Homo sapiens); test: Induction of microtubule instability in human MCF7 cells assessed as rescue frequency at IC50 for mitotic block measured after 20 hrs by immunofluorescence analysis; type: cell-based
Tubulin (Homo sapiens) [45] = target: T1, Tubulin (Homo sapiens); test: Time required for induction of microtubule dynamic instability in human MCF7 cells at IC50 for mitotic block measured after 20 hrs by immunofluorescence analysis; type: cell-based
Tubulin (Homo sapiens) [46] = target: T1, Tubulin (Homo sapiens); test: Time required for induction of microtubule dynamic instability in human MCF7 cells at IC25 for mitotic block measured after 20 hrs by immunofluorescence analysis; type: cell-based
Tubulin (Bos taurus) = Tubulin (Bos taurus) (UniProt Q6B856+Q862L2+Q862F3); conditions: 10 uM
Description: Inhibition of [3H]CLC binding to bovine brain tubulin at 10 uM measured after 120 mins in presence of GTP by scintillation counting method

[47] = target: Tubulin alpha (Homo sapiens) (UniProt P0DPH7+P68366+Q71U36+P68363+Q9BQE3+Q6PEY2+A6NHL2+Q9NY65); test: Induction of alpha-tubulin depolymerization in HUVEC at 200 nM measured after 30 mins by DAPI staining based indirect immunofluorescence analysis; type: cell-based

Chain of Tubulin (Candida albicans) (O93807 whole entry, looked up): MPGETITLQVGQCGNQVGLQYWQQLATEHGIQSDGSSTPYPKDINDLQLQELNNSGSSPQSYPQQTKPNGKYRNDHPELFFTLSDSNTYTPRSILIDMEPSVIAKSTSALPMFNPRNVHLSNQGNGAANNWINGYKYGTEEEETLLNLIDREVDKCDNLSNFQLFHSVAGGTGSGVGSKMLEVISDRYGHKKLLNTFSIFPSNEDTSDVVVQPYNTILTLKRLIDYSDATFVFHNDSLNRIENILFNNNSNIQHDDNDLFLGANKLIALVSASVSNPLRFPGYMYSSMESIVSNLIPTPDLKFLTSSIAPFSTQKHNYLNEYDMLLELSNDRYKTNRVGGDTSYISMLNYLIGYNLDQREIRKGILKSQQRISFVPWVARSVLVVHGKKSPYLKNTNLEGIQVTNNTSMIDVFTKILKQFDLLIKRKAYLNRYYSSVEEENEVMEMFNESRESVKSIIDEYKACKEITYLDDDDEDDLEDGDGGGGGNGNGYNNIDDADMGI
Chain of Tubulin (Candida albicans) (P10875 whole entry, looked up): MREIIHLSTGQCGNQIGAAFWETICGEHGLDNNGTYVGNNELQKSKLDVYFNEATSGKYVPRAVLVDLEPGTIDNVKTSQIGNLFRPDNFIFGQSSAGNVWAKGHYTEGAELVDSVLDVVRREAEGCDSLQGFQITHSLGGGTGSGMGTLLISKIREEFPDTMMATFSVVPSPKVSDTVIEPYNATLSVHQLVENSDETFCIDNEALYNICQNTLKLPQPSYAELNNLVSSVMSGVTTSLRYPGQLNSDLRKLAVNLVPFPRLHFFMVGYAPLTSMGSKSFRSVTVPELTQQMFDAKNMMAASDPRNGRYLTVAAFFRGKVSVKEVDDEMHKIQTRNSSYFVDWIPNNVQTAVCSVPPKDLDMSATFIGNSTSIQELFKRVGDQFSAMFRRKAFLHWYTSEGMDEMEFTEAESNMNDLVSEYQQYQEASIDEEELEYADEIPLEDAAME
Chain of Tubulin (Candida albicans) (P87066 whole entry, looked up): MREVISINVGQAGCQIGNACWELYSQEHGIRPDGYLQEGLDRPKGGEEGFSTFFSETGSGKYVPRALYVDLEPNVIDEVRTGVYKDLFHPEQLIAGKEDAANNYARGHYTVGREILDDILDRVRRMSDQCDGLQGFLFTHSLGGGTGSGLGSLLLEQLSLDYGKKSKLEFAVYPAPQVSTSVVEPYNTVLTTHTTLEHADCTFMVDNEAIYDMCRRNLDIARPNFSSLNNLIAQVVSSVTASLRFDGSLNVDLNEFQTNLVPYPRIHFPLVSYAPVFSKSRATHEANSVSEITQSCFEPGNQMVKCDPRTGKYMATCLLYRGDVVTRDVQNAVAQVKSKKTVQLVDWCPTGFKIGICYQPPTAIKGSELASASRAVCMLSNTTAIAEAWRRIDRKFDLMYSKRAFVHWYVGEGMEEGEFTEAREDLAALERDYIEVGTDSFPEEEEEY

COC(=O)Nc1nc2cc(C(=O)c3cccs3)ccc2[nH]1
Activity (HeLa [1]): Active
Activity (HeLa [2]): Active
inhibition [3]: Active

CCCCNC(=O)n1c(NC(=O)OC)nc2ccccc21 [BENOMYL]
MFC (Nakaseomyces glabratus): > 512 µg/mL

NS(=O)(=O)c1ccc(S(=O)(=O)Nc2cccc3c(Cl)c[nH]c23)cc1
IC50 [4]: 0.15 µg/mL (≈ 0.389 µM)

COc1ccc(/C=c2\[nH]c(=O)/c(=C/c3nc[nH]c3C(C)(C)C)[nH]c2=O)c(OC)c1OC
EC50 [5]: 4060 to 4800 nM
Activity [6]: 94%
inhibition (INH) [7]: 78%
MFC (Aspergillus fumigatus [8]): > 16 µg/mL
MIC (Candida albicans [9]): > 32 µg/mL
MIC (Candida albicans [10]): > 32 µg/mL
MIC [11]: > 32 µg/mL
MIC (Aspergillus fumigatus [12]): > 16 µg/mL
MIC (Aspergillus fumigatus [13]): 0.06 µg/mL (≈ 0.141 µM)

CC(C)OC(=O)Nc1cccc(Cl)c1
inhibition [3]: Active

COc1cc(/C=c2\[nH]c(=O)/c(=C/c3nc[nH]c3C(C)(C)C)[nH]c2=O)cc(OC)c1OC
EC50 [5]: 819 to 2000 nM
MFC (Aspergillus fumigatus [8]): > 16 µg/mL
MIC (Candida albicans [9]): > 32 µg/mL
MIC (Candida albicans [10]): > 32 µg/mL
MIC [11]: > 32 µg/mL
MIC (Aspergillus fumigatus [12]): > 16 µg/mL
MIC (Aspergillus fumigatus [13]): 0.06 µg/mL (≈ 0.141 µM)
MIC [14]: 0.06 µg/mL (≈ 0.141 µM)
MFC (Trichophyton rubrum [15]): > 16 µg/mL
MIC [16]: < 0.03 µg/mL
MFC (Trichophyton rubrum [17]): < 0.03 µg/mL
MIC [18]: 1 µg/mL (≈ 2.34 µM)
MFC [19]: > 16 µg/mL
MIC [20]: > 16 µg/mL
MIC [21]: > 16 µg/mL
MIC [22]: > 16 µg/mL

C=CC(C)(C)c1[nH]cnc1/C=c1\[nH]c(=O)/c(=C/c2ccccc2)[nH]c1=O
EC50 [5]: 42.6 to 48 nM
EC50 [23]: 4.7 to 5.4 nM
inhibition (INH) [7]: 86%
EC50 [24]: 116 nM
EC50 [25]: 114 nM
EC50 [26]: 98 nM
EC50 [27]: 88 nM
Activity (Jurkat [28]): Active
Activity (Jurkat [29]): Active
MIC [11]: > 68 µg/mL
MIC (Aspergillus fumigatus [12]): > 16 µg/mL
MIC (Aspergillus fumigatus [13]): > 16 µg/mL
MIC [14]: > 16 µg/mL
MIC [16]: 0.25 µg/mL (≈ 0.718 µM)
MFC (Trichophyton rubrum [17]): > 16 µg/mL
MIC [18]: 4 µg/mL (≈ 11.5 µM)
MFC [19]: > 16 µg/mL
MIC [20]: > 16 µg/mL
MIC [21]: > 16 µg/mL
MIC [22]: > 16 µg/mL

CCc1c2c(nc3ccc(OC(=O)N4CCC(N5CCCCC5)CC4)cc13)-c1cc3c(c(=O)n1C2)COC(=O)[C@]3(O)CC [IRINOTECAN]
inhibition in vivo at 100 mg/kg [30]: 32.7 to 39%

COc1ccc(/C=C\c2cc(OC)c(OC)c(OC)c2)cc1O
inhibition (MCF7 [31]): Dose-dependent effect
Activity (MCF7 [32]): Active
Activity (MCF7 [33]): Active
Activity (MCF7 [34]): Dose-dependent effect
TIME (Tubulin (Homo sapiens) [35]): 0.0045 h
TIME (Tubulin (Homo sapiens) [36]): 0.0035 h
TIME (Tubulin (Homo sapiens) [37]): 0.0075 h
Activity (Tubulin (Homo sapiens) [38]): 1.52 min⁻¹
Activity (Tubulin (Homo sapiens) [39]): 1.9 min⁻¹
TIME (Tubulin (Homo sapiens) [40]): 0.0055 h
TIME (Tubulin (Homo sapiens) [41]): 0.00367 h
TIME (Tubulin (Homo sapiens) [42]): 0.00917 h
Activity (Tubulin (Homo sapiens) [43]): 1.09 min⁻¹
Activity (Tubulin (Homo sapiens) [44]): 2.79 min⁻¹
TIME (Tubulin (Homo sapiens) [45]): 0.653 h
TIME (Tubulin (Homo sapiens) [46]): 0.66 h
inhibition (Tubulin (Bos taurus)): Active

CC(C)(C)c1[nH]cnc1/C=c1\[nH]c(=O)/c(=C/c2cccc(F)c2)[nH]c1=O
Activity [47]: Active

CC(C)(C)c1[nH]cnc1/C=C1\NC(=O)[C@H](Cc2ccccc2)NC1=O
MIC [14]: < 0.03 µg/mL
MFC (Trichophyton rubrum [15]): 0.125 µg/mL (≈ 0.369 µM)
MIC [16]: < 0.03 µg/mL
MFC (Trichophyton rubrum [17]): < 0.03 µg/mL
MIC [18]: 4 µg/mL (≈ 11.8 µM)
MFC [19]: > 16 µg/mL
MIC [20]: > 16 µg/mL
MIC [21]: > 16 µg/mL
MIC [22]: > 16 µg/mL

Reference: ChEMBL document CHEMBL3881525, “Analogs of dehydrophenylahistins and their therapeutic use” (2007)
